This is an account of results in article PMC4624142, “Purification and characterisation of intracellular alpha-galactosidases from Acinetobacter sp” (3 Biotech, 2015).

Holding throughout (format): biochemical, Acinetobacter sp.
Details in all cases: 20 mM Tris pH 7.0, 50 °C; unit mM ml^−1 [sic]

The test system of test [1] is T1, alpha-galactosidase I (Ag-I).
T1 construct: native intracellular enzyme purified from Acinetobacter sp. isolate G1 (soil, sugarcane industry, Sangareddy, India); 65 kDa, monomer
The test can be described thus: reducing sugar (DNS, […] nm), Lineweaver-Burk.

Test [2] has as its system T2, alpha-galactosidase II (Ag-II).
T2 construct: native intracellular enzyme purified from Acinetobacter sp. isolate G1 (soil, sugarcane industry, Sangareddy, India); 37 kDa, monomer
In words: reducing sugar (DNS, […] nm), Lineweaver-Burk.

In test [3] the test system is T1, alpha-galactosidase I (Ag-I). In words: p-nitrophenol release at […] nm, Lineweaver-Burk.
The subject of test [4] is T2, alpha-galactosidase II (Ag-II). In words: p-nitrophenol release at […] nm, Lineweaver-Burk.

Consider `OC[C@H]1O[C@H](OC[C@H]2O[C@H](O[C@]3(CO)O[C@H](CO)[C@@H](O)[C@@H]3O)[C@H](O)[C@@H](O)[C@@H]2O)[C@H](O)[C@@H](O)[C@H]1O` [Raffinose], for which the “Michaelis constant (K m) mM ml^-1” value in test [1] was found to be 3.26 mM ml^−1; in test [2] it was 0.74 mM ml^−1.
Consider `O=[N+]([O-])c1ccc(O[C@H]2O[C@H](CO)[C@H](O)[C@H](O)[C@H]2O)cc1` [ρNPGal, p-Nitrophenyl-α-D-galactopyranoside], for which the “Michaelis constant (K m) mM ml^-1” value is 0.33 mM ml^−1 in test [3] and 0.68 mM ml^−1 in test [4].
